Where no end group is shown, it is not given here.
Experiments:
MRSA [1] = format: cell-based, methicillin-resistant Staphylococcus aureus; details: for MIC of antibiotic alone, MRSA: MTT indicator; for FIC index of Cefotaxime in combination with the peptide, MRSA / FIC index of Chloramphenicol in combination with the peptide, MRSA / FIC index of Erythromycin in combination with the peptide, MRSA: FIC(A) = MIC of antibiotic in the presence of peptide / MIC of antibiotic alone
S. typhi^R [2] = format: cell-based, Salmonella typhi; details: for MIC of antibiotic alone, S. typhi: resistant strain, MTT indicator; for MIC of antibiotic alone, S. typhi / FIC index of peptide in combination with Cefotaxime, S. typhi^R / FIC index of peptide in combination with Chloramphenicol, S. typhi^R / FIC index of peptide in combination with Erythromycin, S. typhi^R: 37 °C, 24 h; for FIC index of Cefotaxime in combination with the peptide, S. typhi^R / FIC index of Chloramphenicol in combination with the peptide, S. typhi^R / FIC index of Erythromycin in combination with the peptide, S. typhi^R: FIC(A) = MIC of antibiotic in the presence of peptide / MIC of antibiotic alone; for FIC index of peptide in combination with Cefotaxime, S. typhi^R / FIC index of peptide in combination with Chloramphenicol, S. typhi^R / FIC index of peptide in combination with Erythromycin, S. typhi^R: checkerboard, FIC(A)+FIC(P)
E. coli^R = format: cell-based, Escherichia coli; details: for MIC of antibiotic alone, E. coli: resistant strain, MTT indicator; for MIC of antibiotic alone, E. coli / FIC index of peptide in combination with Cefotaxime, E. coli^R / FIC index of peptide in combination with Chloramphenicol, E. coli^R / FIC index of peptide in combination with Erythromycin, E. coli^R: 37 °C, 24 h; for FIC index of Chloramphenicol in combination with the peptide, E. coli^R / FIC index of Erythromycin in combination with the peptide, E. coli^R / FIC index of Cefotaxime in combination with the peptide, E. coli^R: FIC(A) = MIC of antibiotic in the presence of peptide / MIC of antibiotic alone; for FIC index of peptide in combination with Cefotaxime, E. coli^R / FIC index of peptide in combination with Chloramphenicol, E. coli^R / FIC index of peptide in combination with Erythromycin, E. coli^R: checkerboard, FIC(A)+FIC(P)
[3] = test system: microorganisms tested (standard and resistant bacterial strains); assay: MIC range over the strains tested and therapeutic index; format: cell-based; details: for MIC range: range over the strains tested, micro broth dilution
S. aureus = format: cell-based, Staphylococcus aureus; details: micro broth dilution, 37 °C, 24 h, MTT indicator, triplicates
MRSA [4] = format: cell-based, methicillin-resistant Staphylococcus aureus; details: micro broth dilution, 37 °C, 24 h, MTT indicator, triplicates
K. pneumoniae = format: cell-based, Klebsiella pneumoniae; details: micro broth dilution, 37 °C, 24 h, MTT indicator, triplicates
[5] = test system: E. coli^R (resistant strain); format: cell-based, Escherichia coli; details: micro broth dilution, 37 °C, 24 h, MTT indicator, triplicates
S. typhi^R [6] = format: cell-based, Salmonella typhi; details: micro broth dilution, 37 °C, 24 h, MTT indicator, triplicates
S. typhi^N = format: cell-based, Salmonella typhi; details: micro broth dilution, 37 °C, 24 h, MTT indicator, triplicates
[7] = test system: E. coli^N (standard strain); format: cell-based, Escherichia coli; details: micro broth dilution, 37 °C, 24 h, MTT indicator, triplicates
human erythrocytes = assay: Hemolytic activity; format: cell-based; details: 1% human erythrocytes in PBS pH 7.40, 37 °C, 1 h, absorbance 570 nm
S. pyogenes = format: cell-based, Streptococcus pyogenes; details: micro broth dilution, 37 °C, 24 h, MTT indicator, triplicates
[8] = checkerboard, FIC(A)+FIC(P), 37 °C, 24 h

Compound	MIC of antibiotic alone, MRSA (MRSA [1]; 37 °C, 24 h)	MIC of antibiotic alone, S. typhi (S. typhi^R [2])	FIC index of Chloramphenicol in combination with the peptide, E. coli^R (E. coli^R)	FIC index of Erythromycin in combination with the peptide, E. coli^R (E. coli^R)	Minimum inhibitory concentration; MIC, S. aureus (S. aureus)	Minimum inhibitory concentration; MIC, MRSA (MRSA [4])	FIC index of Cefotaxime in combination with the peptide, MRSA (MRSA [1])	FIC index of Chloramphenicol in combination with the peptide, MRSA (MRSA [1])	FIC index of Erythromycin in combination with the peptide, MRSA (MRSA [1])	FIC index of Cefotaxime in combination with the peptide, S. typhi^R (S. typhi^R [2])	FIC index of Chloramphenicol in combination with the peptide, S. typhi^R (S. typhi^R [2])	FIC index of Erythromycin in combination with the peptide, S. typhi^R (S. typhi^R [2])	Minimum inhibitory concentration; MIC, K. pneumoniae (K. pneumoniae)	Minimum inhibitory concentration; MIC, E. coli^R [5]	Minimum inhibitory concentration; MIC, S. typhi^R (S. typhi^R [6])	Minimum inhibitory concentration; MIC, S. typhi^N (S. typhi^N)	Minimum inhibitory concentration; MIC, E. coli^N [7]	MHC (minimum concentration of peptide that causes hemolysis) (human erythrocytes)	Minimum inhibitory concentration; MIC, S. pyogenes (S. pyogenes)	FIC index of Cefotaxime in combination with the peptide, E. coli^R (E. coli^R)	further results
CO/N=C(\C(=O)N[C@@H]1C(=O)N2C(C(=O)O)=C(COC(C)=O)CS[C@H]12)c1csc(N)n1 [Cefotaxime, reference compound]	34.3 µM	68.6 µM																			
O=C(N[C@H](CO)[C@H](O)c1ccc([N+](=O)[O-])cc1)C(Cl)Cl [Chloramphenicol, reference compound]	193.4 µM	6 µM																			MIC of antibiotic alone, E. coli (E. coli^R): 386.8 µM
CC[C@H]1OC(=O)[C@H](C)[C@@H](O[C@H]2C[C@@](C)(OC)[C@@H](O)[C@H](C)O2)[C@H](C)[C@@H](O[C@@H]2O[C@H](C)C[C@H](N(C)C)[C@H]2O)[C@](C)(O)C[C@@H](C)C(=O)[C@H](C)[C@@H](O)[C@]1(C)O [Erythromycin, reference compound]	1.3 µM	21.3 µM																			MIC of antibiotic alone, E. coli (E. coli^R): 85.2 µM
AILFLSLGAIKKG [BRGP-001]			0.25	0.12	117 µM	15 µM	0.50	0.063	0.54	0.50	0.50	0.50	117 µM	>1879 µM	>1879 µM	>1879 µM	>1879 µM	1.127 mM	>1879 µM		MIC range [3]: 15 to 117 µM; FIC index of peptide in combination with Chloramphenicol, MRSA (MRSA [1]; [8]): 2.063; FIC index of peptide in combination with Erythromycin, MRSA (MRSA [1]; [8]): 0.81
FALSILGALGIKK [BRGP-006]			0.25	0.12	939 µM	235 µM	0.50	0.25	1.00	0.50	0.50	1.00	1879 µM	470 µM	235 µM	>1879 µM	470 µM	1.503 mM	470 µM	0.50	FIC index of peptide in combination with Cefotaxime, E. coli^R (E. coli^R): 2.50; FIC index of peptide in combination with Chloramphenicol, E. coli^R (E. coli^R): 0.75; FIC index of peptide in combination with Erythromycin, E. coli^R (E. coli^R): 0.25; MIC range [3]: 235 to 1879 µM; FIC index of peptide in combination with Cefotaxime, MRSA (MRSA [1]; [8]): 0.75; FIC index of peptide in combination with Chloramphenicol, MRSA (MRSA [1]; [8]): 0.75; FIC index of peptide in combination with Erythromycin, MRSA (MRSA [1]; [8]): 1.030; FIC index of peptide in combination with Cefotaxime, S. typhi^R (S. typhi^R [2]): 1.00; FIC index of peptide in combination with Chloramphenicol, S. typhi^R (S. typhi^R [2]): 0.53; FIC index of peptide in combination with Erythromycin, S. typhi^R (S. typhi^R [2]): 1.50
FLIKSLAGAKGIL [BRGP-002]			0.50		>1879 µM	>1879 µM	0.50	1.00	1.00	1.00	1.00		>1879 µM	>1879 µM	>1879 µM	>1879 µM	>1879 µM	1.879 mM	>1879 µM		
GIKGALKSILFAL [BRGP-005]			0.25	0.12	>1879 µM	>1879 µM	0.50	0.50	1.00	0.50	1.00	0.50	>1879 µM	235 µM	470 µM	>1879 µM	470 µM	0.188 mM	470 µM	0.25	FIC index of peptide in combination with Cefotaxime, E. coli^R (E. coli^R): 2.25; FIC index of peptide in combination with Chloramphenicol, E. coli^R (E. coli^R): 1.25; FIC index of peptide in combination with Erythromycin, E. coli^R (E. coli^R): 0.37; Therapeutic Indices (MHC/MIC) ([3]; range over the MIC range): 0.80 to 0.40; MIC range [3]: 235 to 470 µM; FIC index of peptide in combination with Cefotaxime, S. typhi^R (S. typhi^R [2]): 0.75; FIC index of peptide in combination with Chloramphenicol, S. typhi^R (S. typhi^R [2]): 1.032; FIC index of peptide in combination with Erythromycin, S. typhi^R (S. typhi^R [2]): 0.63
KGGAIKSLFLILA [BRGP-003]			1.00	1.00	>1879 µM	>1879 µM	0.50	0.50	0.54	1.00	1.00		>1879 µM	>1879 µM	>1879 µM	>1879 µM	>1879 µM	1.127 mM	>1879 µM	0.50	
KGIKGALSILFAL [BRGP-004]			0.50	0.12	>1879 µM	>1879 µM	0.50	0.50	0.54	1.00	1.00	0.50	>1879 µM	>1879 µM	>1879 µM	>1879 µM	>1879 µM	1.503 mM	>1879 µM	0.50	
PQQYPEMNTRRNW [BRGP-007]					>1454 µM	>1454 µM							>1454 µM	>1454 µM	>1454 µM	>1454 µM	>1454 µM	1.454 mM	>1454 µM		

Reference: paper PMC10558864 (Heliyon, 2023)
